Values joined by “and” are separate entries in the source; they are usually repeats but may differ in a detail not shown here. Equal entries are not always repeated.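 Tested at 5 concentrations; 48 h exposure; 96-well plates; endpoints linearly interpolated, else capped at highest concentration. The concentration for 50% growth inhibition is given as GI50. At the TGI there is no net growth.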
Tests used:
Assay in all cases: NCI tumour cell line growth inhibition, 48 h
SF-268 CNS = tested on: SF-268 CNS
COLO 205 colon = tested on: COLO 205 colon
CCRF-CEM leukemia = tested on: CCRF-CEM leukemia
SF-539 CNS = tested on: SF-539 CNS
CAKI-1 renal = tested on: CAKI-1 renal
OVCAR-5 ovarian = tested on: OVCAR-5 ovarian
A549 NSCLC = tested on: A549 NSCLC
SK-MEL-28 melanoma = tested on: SK-MEL-28 melanoma
NCI-H460 lung = tested on: NCI-H460 lung
NCI-H23 lung = tested on: NCI-H23 lung

Row | Structure (SMILES) | TGI (SF-268 CNS) | TGI (COLO 205 colon) | TGI (CCRF-CEM leukemia) | TGI (SF-539 CNS) | TGI (CAKI-1 renal) | TGI (OVCAR-5 ovarian) | TGI (A549 NSCLC) | TGI (SK-MEL-28 melanoma) | TGI (NCI-H460 lung) | TGI (NCI-H23 lung) | GI50 (SF-268 CNS) | GI50 (COLO 205 colon) | GI50 (CCRF-CEM leukemia) | GI50 (SF-539 CNS) | GI50 (CAKI-1 renal) | GI50 (OVCAR-5 ovarian) | GI50 (A549 NSCLC) | GI50 (SK-MEL-28 melanoma) | GI50 (NCI-H460 lung) | GI50 (NCI-H23 lung)
1 | O=c1c2cc(Cl)ccc2sc2cccc(Cl)c12 | > 100 µM | > 100 µM | > 100 µM | > 100 µM | > 100 µM | > 100 µM | > 100 µM | > 100 µM | > 100 µM | > 100 µM |  |  |  |  |  |  |  |  |  | 
2 | Cc1cn(-c2cc(NC(=O)c3ccc(C)c(Nc4nccc(-c5cccnc5)n4)c3)cc(C(F)(F)F)c2)cn1 | > 10 µM and 15.2 µM | 7.11 µM and 5.52 µM | > 32.3 µM | > 10 µM and 31.9 µM | > 10 µM and 14.3 µM | > 10 µM and 16.4 µM | > 10 µM and 7.76 µM | 5.97 µM and 3.18 µM | > 10 µM and 10.7 µM | > 10 µM and 30 µM | 5.78 µM and 3.45 µM | 1.58 µM and 1.23 µM | > 10 µM and 1.25 µM | > 10 µM and 15.4 µM | > 10 µM and 7.37 µM | > 10 µM and 3.48 µM | 5.31 µM and 2.68 µM | 1.81 µM and 1.4 µM | 3.31 µM and 2.33 µM | 7.35 µM and 6.5 µM
3 | O=C(O)C1CC(O)CN1 (stereo not given) | > 100 µM | > 100 µM | > 100 µM | > 100 µM | > 100 µM | > 100 µM | > 100 µM | > 100 µM | > 100 µM | > 100 µM |  |  |  |  |  |  |  |  |  | 
4 | C=C(c1ccccc1)[C@@]1(O)CC[C@@H]1N(CC#N)Cc1ccccc1 | > 83.9 µM | 30.4 µM | 62.5 µM | 63.1 µM | 45.7 µM | > 100 µM | > 73.5 µM | 28.8 µM | > 100 µM | 68 µM |  |  |  |  |  |  |  |  |  | 
5 | Cc1cccc(C)c1NC(=O)C(=O)Nn1c(NN)nc2ccccc2c1=O | > 100 µM | > 100 µM | > 100 µM | > 100 µM | > 100 µM | > 100 µM | > 100 µM | > 100 µM | > 100 µM | > 100 µM |  |  |  |  |  |  |  |  |  | 
6 | N#CC1(C#N)C(C#N)(C#N)C12CCCCCC2 | 48.9 µM | 33.7 µM | 6.89 µM | 18 µM | 24.6 µM | 30 µM | 21.4 µM | 21.4 µM | > 66.5 µM | 31.3 µM |  |  |  |  |  |  |  |  |  | 
7 | CC(=O)OCc1cc2ccccc2nc1C(Br)(Br)Br | 39.9 µM | 55.2 µM | 29.3 µM | 38.2 µM | 29.5 µM | 30.7 µM | 31.2 µM | 42.6 µM | 33.8 µM | 29.8 µM |  |  |  |  |  |  |  |  |  | 
8 | CC1OC(n2cc(F)c(=O)[nH]c2=O)C=CC1=O (stereo not given) | 38.7 µM | 89.1 µM | 53 µM | 31 µM | 31.1 µM | 30 µM | > 100 µM | 31.5 µM | 56.8 µM | > 100 µM |  |  |  |  |  |  |  |  |  | 
9 | O=c1c(O)c(-c2cc(O)c(O)c(O)c2)oc2cc(O)cc(O)c12 | > 100 µM | > 100 µM | > 100 µM | > 100 µM | 54 µM | > 100 µM | > 100 µM | > 100 µM | 39.1 µM | 35.4 µM |  |  |  |  |  |  |  |  |  | 
10 | O=C(OC[C@H]1O[C@H](OC(=O)c2cc(O)c(O)c(OC(=O)c3cc(O)c(O)c(O)c3)c2)[C@H](OC(=O)c2cc(O)c(O)c(OC(=O)c3cc(O)c(O)c(O)c3)c2)[C@@H](OC(=O)c2cc(O)c(O)c(OC(=O)c3cc(O)c(O)c(O)c3)c2)[C@@H]1OC(=O)c1cc(O)c(O)c(OC(=O)c2cc(O)c(O)c(O)c2)c1)c1cc(O)c(O)c(OC(=O)c2cc(O)c(O)c(O)c2)c1 | > 25 µM | > 25 µM | > 25 µM | > 25 µM | > 25 µM | > 25 µM | > 25 µM | > 25 µM | > 25 µM | > 25 µM | 2.18 µM | 8.17 µM | 3.23 µM | 5.56 µM | 1.39 µM | 4.95 µM | 1.4 µM | 12.8 µM | 1.09 µM | 1.56 µM
11 | O=C1C(Cl)=C(NCc2ccco2)C(=O)c2ccccc21 | 81.9 µM | 26.4 µM | > 100 µM | 54 µM | > 100 µM | > 65.1 µM | 31.1 µM | 17.8 µM | > 100 µM | 10.4 µM | 22.5 µM | 9.11 µM | 9.88 µM | 20.9 µM | 58.1 µM | 33.8 µM | 7.61 µM | 6.89 µM | 4.78 µM | 2.5 µM
12 | O=Cc1c(O)c(C(=O)Nc2ccc3[nH]c(=O)[nH]c3c2)cc2ccccc12 | > 100 µM | > 100 µM | > 100 µM | > 100 µM | > 100 µM | > 100 µM | > 100 µM | > 100 µM | > 100 µM | > 100 µM |  |  |  |  |  |  |  |  |  | 
13 | NC(N)=NS(=O)(=O)c1ccc(Nc2c3ccccc3nc3c(C(=O)Nc4ccc(S(N)(=O)=O)cc4)cccc23)cc1 | > 100 µM | > 100 µM | > 100 µM | > 100 µM | > 100 µM | > 100 µM | > 100 µM | > 100 µM | > 100 µM | > 100 µM |  |  |  |  |  |  |  |  |  | 
14 | CC(C)(c1ccccc1)c1ccc(OC#N)cc1 | > 100 µM | > 56.5 µM | > 76.3 µM | > 100 µM | > 100 µM | > 100 µM | > 100 µM | > 100 µM | > 59.1 µM | > 100 µM |  |  |  |  |  |  |  |  |  | 
15 | NCCCNCCCCNC(=O)C(O)NC(=O)CCCCCCN=C(N)N (stereo not given) | > 5000 µM | 750 µM and > 5000 µM | 750 µM and > 3570 µM | > 5000 µM | 710 µM and > 5000 µM | > 5000 µM | 750 µM and > 5000 µM | > 5000 µM | 750 µM and > 5000 µM | 750 µM and > 5000 µM | 3070 µM | 1580 µM | 1320 µM | > 4070 µM | 540 µM and > 3340 µM | > 3010 µM | 1640 µM | > 3670 µM | > 2770 µM | 2330 µM
16 | C=C1CC2(OC1=O)C(=O)Nc1ccccc12 (stereo not given) | 26 µM | 2.41 µM | 7.15 µM | 3.81 µM | 2.65 µM | 19.4 µM | 34.3 µM | 4.26 µM | 24.7 µM | 23.1 µM | 6.72 µM | 0.885 µM | 2.11 µM | 1.88 µM | 1.29 µM | 5.83 µM | 12.9 µM | 1.99 µM | 6.48 µM | 6.34 µM
17 | CN(C)c1ccc(/C=C/c2cc[n+](C)c(/C=C/c3ccc(N(C)C)cc3)c2)cc1 | 6.26 µM | 0.356 µM | 3.78 µM | 3.01 µM | 7.4 µM | 14.2 µM | 10.6 µM | 2.7 µM | 1.72 µM | 1.21 µM | 0.399 µM | 0.176 µM | 0.248 µM | 0.393 µM | 1.42 µM | 0.401 µM | 0.334 µM | 0.667 µM | 0.343 µM | 0.194 µM

From PubChem BioAssay (NCI)
